From PMC11003491 (Journal of Enzyme Inhibition and Medicinal Chemistry, 2023)

Columns and labels:
HER-2 = HER-2 (Homo sapiens, UniProt P04626); test: HER-2 Kinase Assay Kit; assay type: biochemical
EGFR-WT = EGFR-WT (Homo sapiens, UniProt P00533); test: biochemical; details: EGFR WT IC50, five concentrations
MCF7 breast cells = test: Apoptosis by Annexin-V-FITC/PI flow cytometry; assay type: cell-based, human; details: MCF7, compound at IC50, 24 h
breast MCF7 cells = test: Cell cycle analysis by flow cytometry; assay type: cell-based, human; details: MCF7, compound at IC50 concentration, 24 h
[1] = test system: A549 small lung cancer cell line; test: MTT cell viability assay, A549; assay type: cell-based; details: Homo sapiens, A549, 48 h, read-out: A549 IC50, MTT, 48 h, mean of six values
MCF-7 = details: read-out: cytotoxicity against MCF-7 IC50; cited from earlier work

EGFR-WT, sequence (P00533 25-1210): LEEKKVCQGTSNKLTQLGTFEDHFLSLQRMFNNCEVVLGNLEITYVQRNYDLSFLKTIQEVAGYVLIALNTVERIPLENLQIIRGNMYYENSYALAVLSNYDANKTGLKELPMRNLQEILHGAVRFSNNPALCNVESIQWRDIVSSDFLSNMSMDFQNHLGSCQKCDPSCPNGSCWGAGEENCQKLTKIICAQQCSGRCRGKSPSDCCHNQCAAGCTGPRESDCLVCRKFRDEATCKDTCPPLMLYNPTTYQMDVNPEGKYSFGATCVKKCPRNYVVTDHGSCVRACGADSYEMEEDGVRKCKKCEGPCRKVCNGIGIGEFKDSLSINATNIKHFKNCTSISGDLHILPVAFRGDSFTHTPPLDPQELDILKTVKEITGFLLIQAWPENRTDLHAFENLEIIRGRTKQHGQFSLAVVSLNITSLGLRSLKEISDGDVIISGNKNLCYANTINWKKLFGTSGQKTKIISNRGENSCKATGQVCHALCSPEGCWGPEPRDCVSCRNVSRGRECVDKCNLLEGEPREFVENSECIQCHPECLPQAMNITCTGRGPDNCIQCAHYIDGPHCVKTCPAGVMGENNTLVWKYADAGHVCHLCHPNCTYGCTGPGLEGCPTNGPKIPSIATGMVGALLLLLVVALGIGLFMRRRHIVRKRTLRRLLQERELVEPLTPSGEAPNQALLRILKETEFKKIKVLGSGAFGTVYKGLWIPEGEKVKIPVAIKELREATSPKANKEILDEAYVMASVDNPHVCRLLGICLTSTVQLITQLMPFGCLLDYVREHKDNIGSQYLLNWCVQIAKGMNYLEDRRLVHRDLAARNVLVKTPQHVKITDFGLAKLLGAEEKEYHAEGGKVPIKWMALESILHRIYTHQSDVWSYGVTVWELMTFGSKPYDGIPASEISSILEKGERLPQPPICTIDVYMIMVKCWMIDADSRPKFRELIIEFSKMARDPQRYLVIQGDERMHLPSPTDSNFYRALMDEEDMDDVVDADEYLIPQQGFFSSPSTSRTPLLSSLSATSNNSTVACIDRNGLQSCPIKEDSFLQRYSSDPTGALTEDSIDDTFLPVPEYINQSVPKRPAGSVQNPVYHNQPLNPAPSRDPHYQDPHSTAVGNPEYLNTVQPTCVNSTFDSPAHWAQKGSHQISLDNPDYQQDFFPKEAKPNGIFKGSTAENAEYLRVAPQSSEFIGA
HER-2, sequence (P04626 23-1255): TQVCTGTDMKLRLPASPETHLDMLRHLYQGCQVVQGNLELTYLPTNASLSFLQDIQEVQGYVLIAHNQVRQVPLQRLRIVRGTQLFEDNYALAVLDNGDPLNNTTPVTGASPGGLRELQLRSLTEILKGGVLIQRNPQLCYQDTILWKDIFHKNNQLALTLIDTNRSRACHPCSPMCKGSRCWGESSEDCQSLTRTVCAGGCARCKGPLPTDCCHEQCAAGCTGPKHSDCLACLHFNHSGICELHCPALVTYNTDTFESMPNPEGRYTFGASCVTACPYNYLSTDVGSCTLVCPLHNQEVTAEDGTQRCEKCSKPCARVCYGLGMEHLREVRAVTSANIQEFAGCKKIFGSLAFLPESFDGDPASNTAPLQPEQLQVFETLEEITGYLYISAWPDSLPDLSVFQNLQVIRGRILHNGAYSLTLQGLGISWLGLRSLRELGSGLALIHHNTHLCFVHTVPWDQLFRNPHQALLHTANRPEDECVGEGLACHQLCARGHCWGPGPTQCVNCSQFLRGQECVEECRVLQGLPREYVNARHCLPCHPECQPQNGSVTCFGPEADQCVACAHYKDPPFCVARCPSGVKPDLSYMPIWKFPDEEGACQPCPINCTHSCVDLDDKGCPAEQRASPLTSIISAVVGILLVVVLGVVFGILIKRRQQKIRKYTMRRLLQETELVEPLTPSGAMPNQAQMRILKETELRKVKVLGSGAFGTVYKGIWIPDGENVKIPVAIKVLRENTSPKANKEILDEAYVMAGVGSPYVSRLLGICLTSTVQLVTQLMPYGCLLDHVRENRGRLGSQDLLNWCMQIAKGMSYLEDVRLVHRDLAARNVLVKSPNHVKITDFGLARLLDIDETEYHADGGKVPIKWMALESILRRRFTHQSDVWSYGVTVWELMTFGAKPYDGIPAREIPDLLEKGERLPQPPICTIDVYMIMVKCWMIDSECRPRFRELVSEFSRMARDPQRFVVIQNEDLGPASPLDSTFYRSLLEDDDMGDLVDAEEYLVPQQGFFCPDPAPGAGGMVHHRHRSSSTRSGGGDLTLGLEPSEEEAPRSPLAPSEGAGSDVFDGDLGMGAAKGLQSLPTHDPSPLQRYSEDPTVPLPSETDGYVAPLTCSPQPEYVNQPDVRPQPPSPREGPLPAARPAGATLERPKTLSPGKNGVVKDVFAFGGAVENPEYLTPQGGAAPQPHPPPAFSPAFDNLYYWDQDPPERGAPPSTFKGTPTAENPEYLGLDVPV

SMILES	IC50 (HER-2) [nM]	IC50 (EGFR-WT) [nM]	Apoptosis Early (MCF7 breast cells) [%]	Apoptosis Late (MCF7 breast cells) [%]	Necrosis (MCF7 breast cells) [%]	%G0–G1 (breast MCF7 cells) [%]	%G2-M (breast MCF7 cells) [%]	IC50 [1] [µM]	IC50 (MCF-7) [nM]
COc1ccc(-c2nn(-c3ccc(S(C)(=O)=O)cc3)cc2/C=N/N=c2\[nH]c(-c3ccc(Br)cc3)cs2)cc1 [Compound 18c, (E)-4–(4-bromophenyl)-2-((E)-((3–(4-methoxyphenyl)-1–(4-(methylsulfonyl)phenyl)-1H-pyrazol-4-yl)methylene)hydrazono)-2,3-dihydrothiazole]	144	226	–	–	–	–	–	–	–
COc1ccc(-c2nn(-c3ccc(S(C)(=O)=O)cc3)cc2C=N/N=c2\[nH]c(-c3ccc([N+](=O)[O-])cc3)cs2)cc1 [Compound 18d, (E and Z)-2-((E)-((3–(4-methoxyphenyl)-1–(4-(methylsulfonyl)phenyl)-1H-pyrazol-4-yl)methylene)hydrazono)-4–(4-nitrophenyl)-2,3-dihydrothiazole]	195	388	12.58	27.45	6.52	62.43	4.39	–	–
CC(C)Cc1ccc(-c2nn(-c3ccc(S(C)(=O)=O)cc3)cc2/C=N/N=c2\[nH]c(-c3ccc([N+](=O)[O-])cc3)cs2)cc1 [Compound 18f, (E)-2-((E)-((3–(4-isobutylphenyl)-1–(4-(methylsulfonyl)phenyl)-1H-pyrazol-4-yl)methylene)hydrazono)-4–(4-nitrophenyl)-2,3-dihydrothiazole]	201	190	–	–	–	–	–	1.64 to 14.3	–
C#Cc1cccc(Nc2ncnc3cc(OCCOC)c(OCCOC)cc23)c1 [erlotinib]	–	–	–	–	–	–	–	–	20
